Reference: US20250074891A1 (Anaxis Pharma Pty Ltd., priority 2021, published 2025)

Columns and labels:
Conditions in all cases: Table 35
MLKL (full length) = MLKL (full length) (Homo sapiens (Human), UniProt Q8NB16); experiment: KINOMEscan binding assay, MLKL (full length)
Experimental: (§1) Kinase assays. For most assays, kinase-tagged T7 phage strains were grown in parallel in 24-well blocks in an E. coli host derived from the BL21 strain. E. coli were grown to log-phase and infected with T7 phage from a frozen stock (multiplicity of infection=0.4) and incubated with shaking at 32° C. until lysis (90-150 minutes).
(§2) The Hill Slope was set to −1.

RIP1 = RIP1 (Homo sapiens (Human), UniProt Q13546); experiment: KINOMEscan binding assay, RIP1
Chain of RIP1 (Q13546 whole entry): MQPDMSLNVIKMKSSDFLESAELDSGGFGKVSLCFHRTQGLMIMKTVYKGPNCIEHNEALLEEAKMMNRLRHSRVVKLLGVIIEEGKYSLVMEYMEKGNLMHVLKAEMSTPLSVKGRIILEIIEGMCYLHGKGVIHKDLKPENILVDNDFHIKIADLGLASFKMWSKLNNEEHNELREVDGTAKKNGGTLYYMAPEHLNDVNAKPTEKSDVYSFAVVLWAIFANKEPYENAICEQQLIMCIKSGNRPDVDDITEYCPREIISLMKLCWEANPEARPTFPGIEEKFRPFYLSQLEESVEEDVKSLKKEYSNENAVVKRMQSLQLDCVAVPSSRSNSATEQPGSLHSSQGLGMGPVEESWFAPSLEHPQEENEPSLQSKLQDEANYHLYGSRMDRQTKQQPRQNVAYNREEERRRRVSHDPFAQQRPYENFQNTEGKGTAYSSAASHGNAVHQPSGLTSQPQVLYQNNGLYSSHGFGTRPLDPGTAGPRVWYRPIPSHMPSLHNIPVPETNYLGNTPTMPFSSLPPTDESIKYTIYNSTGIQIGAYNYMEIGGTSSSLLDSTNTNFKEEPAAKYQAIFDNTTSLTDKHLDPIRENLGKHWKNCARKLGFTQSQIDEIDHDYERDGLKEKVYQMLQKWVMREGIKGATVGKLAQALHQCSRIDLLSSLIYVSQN

RIP3 = RIP3 (Homo sapiens (Human), UniProt Q9Y572); experiment: KINOMEscan binding assay, RIP3
Chain of RIP3 (Q9Y572 whole entry): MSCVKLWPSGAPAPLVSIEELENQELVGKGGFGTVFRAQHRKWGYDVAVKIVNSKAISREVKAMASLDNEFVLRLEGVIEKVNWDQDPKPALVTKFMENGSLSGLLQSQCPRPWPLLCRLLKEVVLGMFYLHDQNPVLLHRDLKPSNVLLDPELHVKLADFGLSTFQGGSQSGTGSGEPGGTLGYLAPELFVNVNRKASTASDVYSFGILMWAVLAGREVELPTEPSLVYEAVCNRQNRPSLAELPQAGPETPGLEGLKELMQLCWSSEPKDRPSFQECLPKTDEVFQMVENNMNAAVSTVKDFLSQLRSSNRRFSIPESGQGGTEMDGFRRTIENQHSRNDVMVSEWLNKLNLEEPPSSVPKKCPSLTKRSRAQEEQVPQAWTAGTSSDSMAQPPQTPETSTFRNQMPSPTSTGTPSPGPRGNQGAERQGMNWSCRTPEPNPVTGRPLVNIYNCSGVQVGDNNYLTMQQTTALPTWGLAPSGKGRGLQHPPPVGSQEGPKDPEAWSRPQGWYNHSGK
Experimental: as §1, §2

Chain of MLKL (full length) (Q8NB16 whole entry): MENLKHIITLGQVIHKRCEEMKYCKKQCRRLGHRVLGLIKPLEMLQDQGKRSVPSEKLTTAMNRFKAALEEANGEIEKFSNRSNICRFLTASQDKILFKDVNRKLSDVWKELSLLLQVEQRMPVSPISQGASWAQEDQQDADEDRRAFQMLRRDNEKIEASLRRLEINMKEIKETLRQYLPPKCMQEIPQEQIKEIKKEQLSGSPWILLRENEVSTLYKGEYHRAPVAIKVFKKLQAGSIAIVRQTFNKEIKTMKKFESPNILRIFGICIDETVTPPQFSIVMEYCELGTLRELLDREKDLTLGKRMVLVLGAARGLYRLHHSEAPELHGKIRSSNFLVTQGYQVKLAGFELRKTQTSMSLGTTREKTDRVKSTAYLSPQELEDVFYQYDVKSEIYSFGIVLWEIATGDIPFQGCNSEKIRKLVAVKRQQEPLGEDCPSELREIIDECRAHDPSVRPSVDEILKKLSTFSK

SMILES	Kd (MLKL (full length))	Kd (RIP1)	Kd (RIP3)
NC(=O)c1c(-c2ccc(NS(=O)(=O)CC(F)(F)F)c(OCc3ccc(F)cn3)c2)n[nH]c1Nc1ccccn1 [Compound 240, 3-{3-[(5-fluoropyridin-2-yl)methoxy]-4-(2,2,2-trifluoroethanesulfonamido)phenyl}-5-[(pyridin-2-yl)amino]-1H-pyrazole-4-carboxamide]	< 0.01 µM	> 30 µM	> 30 µM
CCS(=O)(=O)Nc1ccc(-c2n[nH]c(Nc3cccc(OC)n3)c2C(N)=O)cc1OCc1ccc(F)cc1 [Compound 11, 3-(4-(ethylsulfonamido)-3-((4-fluorobenzyl)oxy)phenyl) 5-((6-methoxypyridin-2-yl)amino)-1H-pyrazole-4-carboxamide]	< 0.01 µM	> 30 µM	> 30 µM
N#CCS(=O)(=O)Nc1ccc(-c2n[nH]c(Nc3cccc(C(F)(F)F)n3)c2C(N)=O)cc1 [Compound 29, 3-(4-((cyanomethyl)sulfonamido)phenyl)-5-((6-(trifluoromethyl)pyridin-2-yl)amino)-1H-pyrazole-4-carboxamide]	< 0.01 µM	> 30 µM	> 30 µM
C[C@H](Oc1cc(-c2n[nH]c(Nc3cc(C4(C)CC4)on3)c2C(N)=O)ccc1NS(=O)(=O)C(F)F)c1ccc(F)cc1 [Compound 276, (S)-3-(4-((difluoromethyl)sulfonamido)-3-(1-(4-fluorophenyl)ethoxy)phenyl)-5-((5-(1-methylcyclopropyl)isoxazol-3-yl)amino)-1H-pyrazole-4-carboxamide]	< 0.01 µM	> 30 µM	> 30 µM
Cc1cc(Nc2[nH]nc(-c3ccc(NS(=O)(=O)C(F)F)c(O[C@@H](C)c4ccc(F)cc4)c3)c2C(N)=O)on1 [Compound 302, (S)-3-(4-((difluoromethyl)sulfonamido)-3-(1-(4-fluorophenyl)ethoxy)phenyl)-5-((3-methylisoxazol-5-yl)amino)-1H-pyrazole-4-carboxamide]	< 0.01 µM	> 30 µM	> 30 µM
CCS(=O)(=O)Nc1ccc(-c2n[nH]c(Nc3ccc(C(=O)O)cn3)c2C(N)=O)cc1O[C@@H](C)c1ccc(F)cc1 [Compound 315, (S)-6-((4-carbamoyl-3-(4-(ethylsulfonamido)-3-(1-(4-fluorophenyl)ethoxy)phenyl)-1H-pyrazol-5-yl)amino)nicotinic acid]	< 0.01 µM	> 30 µM	> 30 µM
CCS(=O)(=O)Nc1ccc(-c2n[nH]c(Nc3cnccn3)c2C(N)=O)cc1OCc1ccccc1 [Compound 25, 3-(3-(benzyloxy)-4-(ethylsulfonamido)phenyl)-5-(pyrazin-2-ylamino)-1H-pyrazole-4-carboxamide]	< 0.01 µM	> 30 µM	> 30 µM
NC(=O)c1c(-c2ccc(NS(=O)(=O)CC(F)(F)F)c(OCc3ccc(Cl)cn3)c2)n[nH]c1Nc1cnccn1 [Compound 262, 3-{3-[(5-chloropyridin-2-yl)methoxy]-4-(2,2,2-trifluoroethane-sulfonamido)phenyl}-5-[(pyrazin-2-yl)amino]-1H-pyrazole-4-carboxamide]	< 0.01 µM	> 30 µM	> 30 µM
COc1cnc(Nc2[nH]nc(-c3ccc(NS(=O)(=O)CC(F)(F)F)c(OCc4ccc(F)cc4)c3)c2C(N)=O)cn1 [Compound 143, 3-(3-((4-fluorobenzyl)oxy)-4-((2,2,2-trifluoroethyl)sulfonamido)phenyl)-5-((5-methoxypyrazin-2-yl)amino)-1H-pyrazole-4-carboxamide]	< 0.01 µM	> 30 µM	> 30 µM

The next lines start with the values.

Kd (MLKL (full length))	Kd (RIP1)	Kd (RIP3)	SMILES
< 0.01 µM	> 30 µM	> 30 µM	C[C@H](Oc1cc(-c2n[nH]c(Nc3cc(C(C)(C)C)no3)c2C(N)=O)ccc1NS(=O)(=O)C(F)F)c1ccc(F)cc1 [Compound 295, (S)-5-((3-(tert-butyl)isoxazol-5-yl)amino)-3-(4-((difluoromethyl)sulfonamido)-3-(1-(4-fluorophenyl)ethoxy)phenyl)-1H-pyrazole-4-carboxamide]
< 0.01 µM	> 30 µM	> 30 µM	C[C@H](Oc1cc(-c2n[nH]c(Nc3cccc(C(F)(F)F)n3)c2C(N)=O)ccc1NS(=O)(=O)CC(F)(F)F)c1ccc(F)cc1 [Compound 249, 3-{3-[(1S)-1-(4-fluorophenyl)ethoxy]-4-(2,2,2-trifluoroethane-sulfonamido)phenyl}-5-{[6-(trifluoromethyl)pyridin-2-yl]amino}-1H-pyrazole-4-carboxamide]
< 0.01 µM	> 30 µM	> 30 µM	NC(=O)c1c(-c2ccc(NS(=O)(=O)C(F)F)cc2)n[nH]c1Nc1ccccn1 [Compound 48, 3-(4-((difluoromethyl)sulfonamido)phenyl)-5-(pyridin-2-ylamino)-1H-pyrazole-4-carboxamide]
< 0.01 µM	> 30 µM	> 30 µM	Cc1cnc(Nc2[nH]nc(-c3ccc(NS(=O)(=O)CC(F)(F)F)c(O[C@@H](C)c4ccc(F)cc4)c3)c2C(N)=O)cn1 [Compound 264, 3-{3-[(1S)-1-(4-fluorophenyl)ethoxy]-4-(2,2,2-trifluoroethanesulfonamido)phenyl}-5-[(5-methylpyrazin-2-yl)amino]-1H-pyrazole-4-carboxamide]
< 0.01 µM	> 30 µM	> 30 µM	NC(=O)c1c(-c2ccc(NS(=O)(=O)C(F)F)c(OC3(c4ccc(F)cc4)CC3)c2)n[nH]c1Nc1cnccn1 [Compound 307, 3-(4-((difluoromethyl)sulfonamido)-3-(1-(4-fluorophenyl)cyclopropoxy)phenyl)-5-(pyrazin-2-ylamino)-1H-pyrazole-4-carboxamide]
< 0.01 µM	> 30 µM	> 30 µM	CCS(=O)(=O)Nc1ccc(-c2n[nH]c(Nc3ccnc(C(F)(F)F)n3)c2C(N)=O)cc1OCc1ccc(F)cc1 [Compound 195, 3-(4-(ethylsulfonamido)-3-((4-fluorobenzyl)oxy)phenyl)-5-((2-(trifluoromethyl)pyrimidin-4-yl)amino)-1H-pyrazole-4-carboxamide]
< 0.01 µM	> 30 µM	> 30 µM	NC(=O)c1c(-c2ccc(NS(=O)(=O)CC(F)(F)F)c(OCc3ccc(F)cc3)c2)n[nH]c1Nc1ccccn1 [Compound 239, 3-{3-[(4-fluorophenyl)methoxy]-4-(2,2,2-trifluoroethanesulfonamido)phenyl}-5-[(pyridin-2-yl)amino]-1H-pyrazole-4-carboxamide]
< 0.01 µM	> 30 µM	> 30 µM	CCS(=O)(=O)Nc1ccc(-c2n[nH]c(Nc3cccc(C(F)F)n3)c2C(N)=O)cc1OCc1ccc(F)cc1 [Compound 179, 5-((6-(difluoromethyl)pyridine-2-yl)amino)-3-(4-(ethylsulfonamido)-3-((4-fluorobenzyl)oxy)phenyl)-1H-pyrazole-4-carboxamide]
< 0.01 µM	> 30 µM	> 30 µM	CCS(=O)(=O)Nc1ccc(-c2n[nH]c(Nc3ccnc(OCC(F)F)c3)c2C(N)=O)cc1 [Compound 106, 5-((2-(2,2-difluoroethoxy)pyridin-4-yl)amino)-3-(4-(ethylsulfonamido)phenyl)-1H-pyrazole-4-carboxamide]
